Reference: patent US5932568A, “6-methoxy-1H-benzotriazole-5-carboxamide derivatives and pharmaceutical compositions containing them” (priority 1994, dated 1999)
Counter-ions that a name gives are not always drawn.

What was measured:
[1] = system: apomorphine-induced vomiting; test: Inhibitory effect on apomorphine-induced vomiting; format: in vivo, dogs (Beagle); details: Canis lupus familiaris, po, 1 h, 2 h before s.c. apomorphine hydrochloride 0.3 mg/kg, emetic episodes 1 h; for inhibition in vivo at 1 mg/kg: 1.0 mg/kg oral; for inhibition in vivo at 0.1 mg/kg: 0.1 mg/kg oral
Protocol: A group of 3-4 dogs (Beagle, 8-15 kg) was used for examining inhibitory effects of the test compounds on apomorphine-induced vomiting according to the method of Chen and Ensor [cf. J. Pharmacol. Exp. Ther., 98, 245-250 (1950)]. Test compounds, dissolved or suspended in a 0.5% tragacanth solution were orally administered two hours before the subcutaneous administration of apomorphine hydrochloride (0.3 mg/kg). Then, the emetic episodes were counted for one hour. The emetic episodes of the compound-treated group were compared with those of the corresponding control (non-dosed) group, and the percent inhibition was calculated.

[2] = system: gastric emptying delayed by morphine; test: Effect on gastric emptying delayed by morphine; format: in vivo, Male Wistar rats; set-up: key to Effect on gastric emptying delayed by morphine: +: slightly to moderately improved; ++: markedly improved; ±: no improvement; details: for Effect on gastric emptying delayed by morphine: morphine 3 mg/kg s.c.
Protocol: (§1) The test was carried out according to the method of Scarpignato et al. [c f. Arch. int. Pharmacodyn., 246, 286-294 (1980)]. Male Wistar rats, weighing 130-150 g, were fasted for 18 hours before experimentation, and 1.5 ml of a test meal (phenol red 0.05% in a 1.5% aqueous methylcellulose solution) was orally given. Fifteen minutes after administration of the meal the stomach was removed and the amount of phenol red remaining in the stomach was measured. The test compounds, 10, 30 or 100 mg/kg, each dissolved or suspended in a 0.5% tragacanth solution, were orally administrated 60 minutes before administration of the test meal. Gastric emptying was delayed by subcutaneous administration of cholesystokinin 3 μg/kg or morphine 3 mg/kg 5 minutes before the administration of phenol red. The number of animals used was 5 to 10.

[3] = system: gastrointestinal motility; test: Effect on gastrointestinal motility in conscious dog; format: in vivo, beagle dogs; details: 3 and 10 mg/kg intragastric; fed state, conscious dogs
Protocol: Four healthy beagle dogs per group of both sexes weighing 10 to 12 kg were anesthetized with an i.v. injection of pentobarbital sodium (Nembutal, 30 mg/kg b. wt.), and the abdominal cavity was opened under aseptic conditions. Extraluminal force transducers were sutured onto the seromuscular layer of the gastric antrum, 3 cm proximal to the pyloric ring, the duodenum, the jejunum, the […] terminal ileum in a manner to measure circular muscle contraction, following the method of Ito et al., [cf. Gastrointerol. Japan. 12, 275-283 (1977).] For intragastric (i.g.) administration of drugs, a Silastic tube (Fr. size 6.5) was inserted into the lumen of the gastric body, and the tube was fixed onto the adjacent serosa. The lead wires of these transducers and gastric tube were taken out of abdominal cavity and then brought out through a skin incision made between the scapulae. The outer ends of the lead wires were sutured onto the skin adjacent to the skin incision. After the operation, jacket protector was placed on the dog to protect the lead wires and the Silastic tube. The dogs were housed in individual experimental cages and given dog food at 10 a.m., and water was given freely. Test compounds at 3 and 10 mg/kg were suspended in 0.5% tragacanth solution and given i.g. through the indwelling Silastic tube.

[4] = system: gastric emptying delayed by cholecystokinin; test: Effect on gastric emptying delayed by cholecystokinin; format: in vivo, Male Wistar rats; set-up: key to Effect on gastric emptying delayed by cholecystokinin: +: slightly to moderately improved; ++: markedly improved; ±: no improvement; details: for Effect on gastric emptying delayed by cholecystokinin: cholecystokinin 3 μg/kg s.c.; for Gastric emptying delayed by cholecystokinin (in words): compound 2: 30 or 100 mg/kg, 7b and Compound A: 10, 30 or 100 mg/kg
Protocol: as §1

[5] = system: gastric emptying; test: Gastric emptying enhancing activity; format: in vivo, Male Wistar rats; details: 60 min before test meal, increase from control
Protocol: The test was carried out according to the method of Scarpignato et al. [cf. Arch. Int. Pharmacodyn., 246, 286-294 (1980)]. Male Wistar rats, weighing 130-150 g, were fasted for 18 hours before experimentation, and 1.5 ml of a test meal (phenol red 0.05% in a 1.5% aqueous methylcellulose solution) was orally given. Fifteen minutes after administration of the meal the stomach was removed and the amount of phenol red remaining in the stomach was measured. The test compounds, dissolved or suspended in a 0.5% tragacanth solution, were orally administered 60 minutes before administration of the test meal. The rate of gastric emptying was calculated according to the amount of phenol red remaining in the stomach, and the activity of the test compounds was expressed in terms of increase in the emptying rate from the control.

[6] = system: exploratory activity; test: Inhibitory effect on exploratory activity; format: in vivo, male mice (Std-ddy strain); details: Mus musculus; oral, 2 h before test; 3 min counting; Probit; read-out: ID50 (inhibition of exploratory activity)
Description: A group of 5 male mice (Std-ddy strain, 20-25 g) was used. Two hours after oral administration of the test compounds in the form of 0.5% tragacanth solution or suspension, mice were placed individually in a test box (23×35×30 cm) on Animex activity meter (Farad Co.). Immediately thereafter, activity counting was started and lasted for three minutes. The mean counts of the compound-treated group were compared with those of the corresponding control (non-dosed) group, and the percent inhibition was calculated and the 50% inhibitory dose (ID50) was obtained according to the method of Probit.

[7] = in vivo; details: mouse, oral, mice, 7 days observation
[8] = system: gastrointestinal motility; test: Gastrointestinal motility improving activity (overall statement); details: in vivo

Structure (SMILES)	inhibition in vivo at 1 mg/kg [1] [%]	ED50 [6] [mg/kg]	Increase in gastric emptying rate ([5]; 3 mg/kg oral) [%]	further results
CCN1CCCC[C@H](NC(=O)c2cc3nnn(C)c3cc2OC)C1 [Compound 3, (S)-N-(1-ethyl-1H-hexahydroazepin-3-yl)-6-methoxy-1-methyl-1H-benzotriazole-5-carboxamide]	36	–	–	–
CCN(CC)CCNC(=O)c1cc(Cl)c(N)cc1OC.Cl.O [Compound A, 4-Amino-5-chloro-N-[2-(diethylamino)ethyl]-2-methoxybenzamide hydrochloride monohydrate, reference compound]	86	22.4	–	Effect on gastric emptying delayed by morphine ([2]; 10 mg/kg oral): ±; Effect on gastric emptying delayed by morphine ([2]; 30 mg/kg oral): ±; Effect on gastric emptying delayed by morphine ([2]; 100 mg/kg oral): ±; Gastric emptying delayed by morphine (in words) ([2]; 10, 30 or 100 mg/kg): did not show an improving activity against the delay in gastric emptying induced by cholecystokinin or morphine; Interdigestive migrating like-contractions [3]: did not cause interdigestive migrating contractions at all; Effect on gastric emptying delayed by cholecystokinin ([4]; 10 mg/kg oral): ±; Effect on gastric emptying delayed by cholecystokinin ([4]; 30 mg/kg oral): ±; Effect on gastric emptying delayed by cholecystokinin ([4]; 100 mg/kg oral): ±; Gastric emptying delayed by cholecystokinin (in words) [4]: did not show an improving activity against the delay in gastric emptying induced by cholecystokinin or morphine; Increase in gastric emptying rate ([5]; 2 mg/kg oral): 21%; Increase in gastric emptying rate ([5]; 5 mg/kg oral): 26%; Increase in gastric emptying rate ([5]; 10 mg/kg oral): 31%; inhibition in vivo at 0.5 mg/kg ([1]; 0.5 mg/kg oral): 56%
CCN1CCCCC(NC(=O)c2cc3nnn(CC)c3cc2OC)C1 (stereo not shown) [Compound 4, 1-ethyl-N-(1-ethyl-1H-hexahydroazepin-3-yl)-6-methoxy-1H-benzotriazole-5-carboxamide]	89	> 100	31	–
CCN1CCCC[C@H](NC(=O)c2cc3nn[nH]c3cc2OC)C1 [Compound 8b, (S)-N-(1-ethyl-1H-hexahydroazepin-3-yl)-6-methoxy-1H-benzotriazole-5-carboxamide.3/2 fumarate]	19	–	–	–
CCN1CCCC[C@@H](NC(=O)c2cc3nnn(C)c3cc2OC)C1 [Compound 2, (R)-N-(1-ethyl-1H-hexahydroazepin-3-yl)-6-methoxy-1-methyl-1H-benzotriazole-5-carboxamide]	100	> 100	41	LD50 at 168 h [7]: 688 mg/kg; Interdigestive migrating like-contractions [3]: caused interdigestive migrating like-contractions in fed state in conscious dogs; Effect on gastric emptying delayed by cholecystokinin ([4]; 30 mg/kg oral): +; Effect on gastric emptying delayed by cholecystokinin ([4]; 100 mg/kg oral): ++; Gastric emptying delayed by cholecystokinin (in words) [4]: significantly improved gastric emptying delayed by cholecystokinin; Gastrointestinal motility improving activity (in words) [8]: especially excellent gastrointestinal motility improving activity; inhibition in vivo at 0.1 mg/kg [1]: 80%
CCN1CCCCC(NC(=O)c2cc3nnn(C)c3cc2OC)C1 (stereo not shown) [Compound 1, N-(1-ethyl-1H-hexahydroazepin-3-yl)-6-methoxy-1-methyl-1H-benzotriazole-5-carboxamide]	77	> 100	–	–
COc1cc2c(cc1C(=O)N[C@@H]1CCCCN(CC3CC3)C1)nnn2C [Compound 13, (R)-N-(1-cyclopropylmethyl-1H-hexahydroazepin-3-yl)-6-methoxy-1-methyl-1H-benzotriazole-5-carboxamide]	73	–	–	–
CCN1CCCC[C@@H](NC(=O)c2cc3nnn(CC)c3cc2OC)C1 [Compound 5, (R)-1-ethyl-N-(1-ethyl-1H-hexahydroazepin-3-yl)-6-methoxy-1H-benzotriazole-5-carboxamide]	100	–	35	–
CCN1CCCCCCC(NC(=O)c2cc3nn[nH]c3cc2OC)C1 (stereo not shown) [Compound 10, N-(1-ethyl-1H-octahydroazonin-3-yl)-6-methoxy-1H-benzotriazole-5-carboxamide]	100	–	46	–
CCN1CCCCCCC(NC(=O)c2cc3nnn(C)c3cc2OC)C1 (stereo not shown) [Compound 15, N-(1-ethyl-1H-octahydroazonin-3-yl)-6-methoxy-1-methyl-1H-benzotriazole-5-carboxamide]	71	–	–	–
COc1cc2[nH]nnc2cc1C(=O)N[C@@H]1CCCCN(CC2CC2)C1 [Compound 12, (R)-N-(1-cyclopropylmethyl-1H-hexahydroazepin-3-yl)-6-methoxy-1H-benzotriazole-5-carboxamide]	92	–	–	–
CCN1CCCCCC(NC(=O)c2cc3nn[nH]c3cc2OC)C1 (stereo not shown) [Compound 9, N-(1-ethyl-1H-heptahydroazocin-3-yl)-6-methoxy-1H-benzotriazole-5-carboxamide]	100	–	–	–
CCN1CCCC[C@@H](NC(=O)c2cc3nn[nH]c3cc2OC)C1 [Compound 7a, (R)-N-(1-ethyl-1H-hexahydroazepin-3-yl)-6-methoxy-1H-benzotriazole-5-carboxamide]	100	> 100	–	Gastrointestinal motility improving activity (in words) [8]: especially excellent gastrointestinal motility improving activity; inhibition in vivo at 0.1 mg/kg [1]: 73%
CCN1CCCCCC(NC(=O)c2cc3nnn(C)c3cc2OC)C1 (stereo not shown) [Compound 14, N-(1-ethyl-1H-heptahydroazocin-3-yl)-6-methoxy-1-methyl-1H-benzotriazole-5-carboxamide]	100	–	32	–
CCN1CCCCC(NC(=O)c2cc3nn[nH]c3cc2OC)C1 (stereo not shown) [Compound 6, N-(1-ethyl-1H-hexahydroazepin-3-yl)-6-methoxy-1H-benzotriazole-5-carboxamide]	100	> 100	28	inhibition in vivo at 0.3 mg/kg ([1]; 0.3 mg/kg oral): 71%
COc1cc2[nH]nnc2cc1C(=O)NC1CCCCN(CC2CC2)C1 (stereo not shown) [Compound 11, N-(1-cyclopropylmethyl-1H-hexahydroazepin-3-yl)-6-methoxy-1H-benzotriazole-5-carboxamide]	92	–	34	–
